Measurements published in ChEMBL document CHEMBL1152752, “Chemical components and its antioxidant properties in vitro: an edible marine brown alga, Ecklonia cava” (Bioorg Med Chem, 2009).
Active and inactive are the calls of the source. The rule behind the calls is not given here.

What was measured:
[1] = Antioxidant activity assessed as superoxide radical scavenging activity; type: functional
RAW264.7 [2] = test: Antioxidant activity against mouse RAW264.7 cells assessed as reduction of ROS production measured by fluorescent dichlorofluorescein using DCFH-DA substrate; type: functional, cell-based
RAW264.7 [3] = test: Cytotoxicity against mouse RAW264.7 cells at 100 uM after 24 hrs by MTT assay; type: functional, cell-based
MRC5 = test: Cytotoxicity against human MRC5 cells at 100 uM after 24 hrs by MTT assay; type: cell-based; conditions: mrc5, 24 h
HL-60 = test: Cytotoxicity against human HL60 cells at 100 uM after 24 hrs by MTT assay; type: functional, cell-based
[4] = test system: Radical scavenging activity; test: Antioxidant activity assessed as DPPH radical scavenging activity; type: functional
[5] = Antioxidant activity assessed as Fenton system generated hydroxyl radical scavenging activity by ESR spectrometer; type: functional
RAW264.7 [6] = test: Antioxidant activity against mouse RAW264.7 cells assessed as reduction of ROS production after 200 mins measured by fluorescent dichlorofluorescein using DCFH-DA substrate; type: functional, cell-based; conditions: TDE = time-dependent effect
[7] = Antioxidant activity assessed as […] generated peroxyl radical scavenging formation by ESR spectrometer; type: functional
RAW264.7 [8] = test: Inhibition of Fe(2+)/H2O2-generated hydroxyl radical induced membrane protein oxidation in mouse RAW264.7 cells at 1 uM to 50 uM relative to control; type: functional
RAW264.7 [9] = test: Antioxidant activity against mouse RAW264.7 cells assessed as reduction of ROS production at 50 uM after 200 mins measured by fluorescent dichlorofluorescein using DCFH-DA substrate; type: functional, cell-based
RAW264.7 [10] = test: Increase in intracellular GSH level in mouse RAW264.7 cells assessed as monobromobimane-GSH fluorescence intensity at 20 uM after 120 mins; type: functional, cell-based
RAW264.7 [11] = test: Antioxidant activity against mouse RAW264.7 cells assessed as reduction of ROS production at 1 uM after 200 mins measured by fluorescent dichlorofluorescein using DCFH-DA substrate; type: functional, cell-based
[12] = target: T1, Myeloperoxidase (Homo sapiens) (UniProt P05164); test: Inhibition of MPO activity in TNF-alpha-stimulated human HL60 cells measured enzyme activity per 10^6 cells at 10 uM by spectrophotometrically; type: cell-based; conditions: HL-60
T1 sequence (whole entry): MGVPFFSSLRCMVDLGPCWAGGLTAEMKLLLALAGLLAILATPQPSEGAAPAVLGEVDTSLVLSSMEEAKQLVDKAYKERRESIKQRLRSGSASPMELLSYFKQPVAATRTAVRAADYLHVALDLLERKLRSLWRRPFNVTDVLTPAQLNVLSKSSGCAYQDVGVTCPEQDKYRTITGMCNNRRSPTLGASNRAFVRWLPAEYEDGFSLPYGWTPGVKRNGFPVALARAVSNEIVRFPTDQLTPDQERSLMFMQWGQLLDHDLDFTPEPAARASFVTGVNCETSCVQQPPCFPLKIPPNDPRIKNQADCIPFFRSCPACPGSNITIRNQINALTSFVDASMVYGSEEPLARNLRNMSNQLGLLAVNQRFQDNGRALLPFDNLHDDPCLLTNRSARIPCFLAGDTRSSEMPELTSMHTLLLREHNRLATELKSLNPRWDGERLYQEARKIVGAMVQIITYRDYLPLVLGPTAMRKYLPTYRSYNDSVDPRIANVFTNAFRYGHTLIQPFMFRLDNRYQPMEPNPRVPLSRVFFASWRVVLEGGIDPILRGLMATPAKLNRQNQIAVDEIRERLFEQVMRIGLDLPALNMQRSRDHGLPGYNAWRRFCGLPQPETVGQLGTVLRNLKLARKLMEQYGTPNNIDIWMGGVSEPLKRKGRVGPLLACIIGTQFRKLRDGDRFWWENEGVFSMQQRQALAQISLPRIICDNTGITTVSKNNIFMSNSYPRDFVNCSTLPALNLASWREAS

RAW264.7 [13] = test: Antioxidant activity against mouse RAW264.7 cells assessed as reduction of ROS production at 50 uM after 210 mins measured by fluorescent dichlorofluorescein using DCFH-DA substrate; type: functional; design: scale not given: the % may be the effect or the level left
[14] = target: T1, Myeloperoxidase (Homo sapiens); test: Inhibition of MPO activity in TNF-alpha-stimulated human HL60 cells measured enzyme activity per 10^6 cells at 50 uM by spectrophotometrically; type: cell-based; conditions: HL-60
[15] = target: T1, Myeloperoxidase (Homo sapiens); test: Inhibition of MPO activity in TNF-alpha-stimulated human HL60 cells measured enzyme activity per 10^6 cells by spectrophotometrically; type: cell-based; conditions: HL-60

SMILES | IC50 [1] [µM] | Activity (RAW264.7 [2]) | Activity (RAW264.7 [3]) | Activity (MRC5) | Activity (HL-60) | IC50 [4] [µM] | IC50 [5] [µM] | Activity (RAW264.7 [6]) | IC50 [7] [µM] | Activity (RAW264.7 [8]) | Activity (RAW264.7 [9]) | Activity (RAW264.7 [10]) | Activity (RAW264.7 [11]) | Activity [12] [IU] | Activity (RAW264.7 [13]) [%] | Activity [14] [IU] | Activity [15] | inhibition (INH) (RAW264.7 [8]) [%]
Oc1cc(O)cc(Oc2c(O)cc(O)c3c2Oc2c(O)cc(Oc4c(O)cc(O)cc4O)cc2O3)c1 | 21.9 | Dose-dependent effect | inactive | Non-toxic | inactive | 18.6 | 39.6 | tde | 22.7 | Active | – | – | – | – | – | – | – | –
Oc1cc(O)cc(Oc2c(O)cc(O)c3c2Oc2c(O)cc(O)c(-c4c(O)cc(O)c5c4Oc4c(O)cc(O)c(Oc6cc(O)cc(O)c6)c4O5)c2O3)c1 | 15.9 | Dose-dependent effect | inactive | Non-toxic | inactive | 8.69 | 29.7 | tde | 17.1 | – | Active | Active | Active | 0.53 | 83.58 | 0.47 | Dose-dependent effect | 67.3
Oc1cc(O)cc(Oc2c(O)cc(O)c3c2Oc2c(O)cc(Oc4c(O)cc(Oc5c(O)cc(O)c6c5Oc5c(O)cc(O)cc5O6)cc4O)cc2O3)c1 [DIECKOL] | 16.2 | Dose-dependent effect | inactive | Non-toxic | inactive | 8.28 | 28.6 | tde | 14.5 | – | Active | Active | Active | 0.51 | 84.27 | 0.45 | Dose-dependent effect | 70.5
Oc1cc(O)cc(Oc2c(O)cc(O)c3c2Oc2c(O)cc(O)cc2O3)c1 [ECKOL] | 26.5 | – | inactive | Non-toxic | inactive | 22.9 | 51.8 | – | 28.4 | – | – | – | – | – | – | – | – | –
Oc1cc(O)c(Oc2cc(O)cc(O)c2Oc2cc(O)cc(O)c2-c2c(O)cc(O)cc2O)c(O)c1 [FUCODIPHLOROETHOL G] | 18.6 | Dose-dependent effect | inactive | Non-toxic | inactive | 14.7 | 33.5 | tde | 18.1 | – | Active | Active | – | – | 75.6 | – | – | –
Oc1cc(O)cc(Oc2c(O)cc(O)c3c2Oc2c(O)cc4oc5c(Oc6cc(O)cc(O)c6)c(O)cc(O)c5c4c2O3)c1 [PHLOROFUCOFUROECKOL A] | 21.6 | Dose-dependent effect | inactive | Non-toxic | inactive | 17.7 | 39.2 | tde | 21.4 | Active | – | – | – | – | – | – | – | –
Oc1cc(O)cc(O)c1 [PHLOROGLUCINOL] | 115 | – | inactive | Non-toxic | inactive | – | 392 | – | 129 | – | – | – | – | – | – | – | – | –
